Data on two compounds can be found in patent US10624343B2, “Phenyl urea compound, and use thereof” (Sumitomo Chemical Company, Limited, priority 2016, dated 2020).

Structures are written as SMILES. Where only a bound is given, the exact number is not on record here.

This assay deals with cucumber phytophthora blight fungi (Phytophthora capsici). The experiment in a line: Test for controlling cucumber phytophthora blight fungi (titer plate growth test). Conditions: 4.5 mg in 100 μL dimethyl sulfoxide, 1 μL portion plus 150 μL PDB medium with zoospores; 27° C., three days; absorbance at 600 nm; Efficacy=100×(X−Y)/X. The assay is classed as cell-based. The procedure: Test example 1: Test for controlling cucumber phytophthora blight fungi (Phytophthora capsici)
Four point five (4.5) milligrams of the present compound was diluted with 100 μL of dimethyl sulfoxide. One (1) μL portion of the diluted liquid was dispensed into a titer plate (96 wells), and thereto was then dispensed 150 μL of a potato dextrose broth medium (PDB medium) containing zoospores of cucumber phytophthora blight fungi (Phytophthora capsici). This plate was cultured at 27° C. for three days, thereby allowing the cucumber phytophthora blight fungi to undergo proliferation, and the absorbance at 600 nm of each well of the titer plate was then measured to determine a degree of growth of the cucumber phytophthora blight fungi. The efficacy was calculated from the determined degree of growth by the below-mentioned “Equation 1”. As a result, the efficacy of the Present compound was 90% or more. Efficacy=100×(X−Y)/X “Equation 1” where X: Degree of fungal growth in non-treated area Y: Degree of fungal growth in treated area
In the test example, a non-treated area means an area in which a test was conducted in the same manner, except that dimethyl sulfoxide was dispensed in place of the present compound diluted with dimethyl sulfoxide.

For `CCOC(=O)COc1ncccc1Oc1cc(NC(C)=O)c(F)cc1Cl` [N-[4-chloro-2-fluoro-5-{2-(ethoxycarbonyl)methoxy-3-pyridyloxy}phenyl]acetamide], the efficacy result is listed as “less than 50%”.

For the compound `CCOC(=O)COc1ncccc1Oc1cc(NC(N)=O)c(F)cc1Cl` [Present compound], the efficacy is given as no less than 90%.
